Compound: CCc1cnn2c(NCc3ccc[n+]([O-])c3)cc(N3CCCC[C@H]3CCO)nc12 [Dinaciclib] + O=C(CCCCCCC(=O)Nc1ccccc1)NO [Vorinostat] (partner 1 µM)
Test: relative viability (nuclei count vs DMSO), 5 days (fraction); higher = more cells survive
Outline: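 Lung cancer cell lines in 1536-well plates were dosed by pin tool the day after seeding, either with one drug alone or with a fixed anchor-drug dose plus five library-drug doses (not always all listed) in √10 steps. After 5 days, cells were fixed and their nuclei stained in one step (final 0.05% Triton X-100, 1% formaldehyde, 1 ug/ml Hoechst), then counted on 4× images. Relative viability is the nuclei count in treated wells divided by that in vehicle wells. Values are medians of duplicate plates.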

Cell Line	relative viability (first compound 0.009487 µM)	relative viability (first compound 0.03 µM)	relative viability (first compound 0.09487 µM)	relative viability (first compound 0.3 µM)
201T	1.24	0.74	0.214	0.213
A-427	0.699	0.216	0.111	0.117
ABC-1	0.845	0.419	0.297	0.246
BEN	0.67	0.63	0.345	0.308
CAL-12T	0.511	0.0992	0.1	0.131
COR-L23	0.41	0.0812	0.087	0.0797
COR-L 105	0.679	0.444	0.302	0.302
ChaGo-K-1	0.803	0.197	0.139	0.112
EKVX	0.612	0.472	0.167	0.226
EMC-BAC-2	0.36	0.166	0.152	0.143
EPLC-272H	0.242	0.0369	0.0282	0.0401
H3255	0.705	0.51	0.211	0.205
HARA	0.527	0.331	0.0816	0.0937
HCC-15	0.715	0.355	0.121	0.124
HCC-44	1.24	1.04	0.368	0.319
HCC-78	0.457	0.372	0.229	0.186
HCC-366	0.193	0.0415	0.0286	0.0247
HCC-827	1	0.747	0.123	0.159
HOP-62	0.543	0.0919	0.0742	0.0609
IA-LM	0.973	0.547	0.0376	0.0379
LC-2-ad	0.685	0.17	0.108	0.108
LCLC-97TM1	0.56	0.0645	0.0617	0.0592
LCLC-103H	0.777	0.505	0.178	0.197
LK-2	0.251	0.152	0.148	0.161

Cell Line	relative viability (first compound 0.009487 µM)	relative viability (first compound 0.03 µM)	relative viability (first compound 0.09487 µM)	relative viability (first compound 0.3 µM)
LOU-NH91	0.825	0.286	0.241	0.275
LU99A	0.332	0.119	0.0932	0.109
LXF-289	0.813	0.257	0.0809	0.0855
NCI-H23	0.512	0.143	0.104	0.122
NCI-H322M	0.898	0.396	0.347	0.399
NCI-H358	0.339	0.0713	0.0813	0.0842
NCI-H441	1.07	0.34	0.174	0.131
NCI-H460	0.57	0.0214	0.0191	0.0236
NCI-H520	0.531	0.153	0.15	0.138
NCI-H522	1.13	0.99	0.449	0.319
NCI-H596	0.629	0.613	0.252	0.158
NCI-H647	0.494	0.079	0.0693	0.0788
NCI-H650	0.336	0.146	0.129	0.157
NCI-H661	0.804	0.235	0.211	0.211
NCI-H727	1.33	1.15	0.362	0.312
NCI-H838	0.496	0.146	0.145	0.15
NCI-H1355	0.634	0.507	0.262	0.136
NCI-H1395	0.537	0.269	0.273	0.224
NCI-H1437	0.87	0.183	0.181	0.177
NCI-H1650	0.798	0.175	0.119	0.125
NCI-H1651	0.616	0.534	0.358	0.0861
NCI-H1666	1.28	0.67	0.535	0.625
NCI-H1734	0.571	0.144	0.142	0.126
NCI-H1755	0.739	0.452	0.227	0.242

Cell Line	relative viability (first compound 0.009487 µM)	relative viability (first compound 0.03 µM)	relative viability (first compound 0.09487 µM)	relative viability (first compound 0.3 µM)
NCI-H1793	0.599	0.25	0.107	0.158
NCI-H1915	0.534	0.291	0.116	0.104
NCI-H1944	0.522	0.172	0.11	0.133
NCI-H1975	0.677	0.39	0.144	0.15
NCI-H1993	0.651	0.281	0.42	0.308
NCI-H2009	0.806	0.202	0.0818	0.0781
NCI-H2023	0.678	0.08	0.0556	0.0518
NCI-H2085	0.907	0.503	0.221	0.214
NCI-H2087	0.753	0.114	0.12	0.0878
NCI-H2126	0.817	0.345	0.176	0.194
NCI-H2170	0.736	0.132	0.116	0.116
NCI-H2228	0.749	0.213	0.131	0.136
NCI-H2347	0.515	0.304	0.252	0.228
NCI-H2405	0.813	0.211	0.217	0.201
NCI-H3122	1.05	0.095	0.0953	0.0902
PC-3 [JPC-3]	0.915	0.56	0.277	0.323
PC-14	0.737	0.251	0.0426	0.0456
RERF-LC-KJ	0.652	0.373	0.141	0.135
SK-LU-1	0.65	0.241	0.233	0.208
SK-MES-1	1.23	0.156	0.161	0.148
SW 900	0.557	0.33	0.171	0.143
SW 1573	0.444	0.071	0.0779	0.0742
UMC-11	0.229	0.174	0.167	0.167

Reference: the supplement of paper PMC10307832
